Counter-ions that a name gives are not always drawn. Like-named read-outs stand apart in the source and are kept apart here.
Tests used:
Format in all cases: biochemical, Ratten
Monoaminoxidase Typ A = target: T1, Monoaminoxidase Typ A (Rattus norvegicus, UniProt P21396); test: Inhibition of monoamine oxidase type A in rat brain homogenate (14C-tryptamine); settings: for Hemmung der Monoaminoxidase Typ A r.W. (relative Wirksamkeit): Quotient IC50 Referenzverbindung / IC50 Beispielverbindung
T1 construct: Die Bestimmung der Monoaminoxidase erfolgte in verdünntem Rattenhirnhomogenat; from tissue; host or cells: rat brain homogenate
T1 sequence (P21396 1-526): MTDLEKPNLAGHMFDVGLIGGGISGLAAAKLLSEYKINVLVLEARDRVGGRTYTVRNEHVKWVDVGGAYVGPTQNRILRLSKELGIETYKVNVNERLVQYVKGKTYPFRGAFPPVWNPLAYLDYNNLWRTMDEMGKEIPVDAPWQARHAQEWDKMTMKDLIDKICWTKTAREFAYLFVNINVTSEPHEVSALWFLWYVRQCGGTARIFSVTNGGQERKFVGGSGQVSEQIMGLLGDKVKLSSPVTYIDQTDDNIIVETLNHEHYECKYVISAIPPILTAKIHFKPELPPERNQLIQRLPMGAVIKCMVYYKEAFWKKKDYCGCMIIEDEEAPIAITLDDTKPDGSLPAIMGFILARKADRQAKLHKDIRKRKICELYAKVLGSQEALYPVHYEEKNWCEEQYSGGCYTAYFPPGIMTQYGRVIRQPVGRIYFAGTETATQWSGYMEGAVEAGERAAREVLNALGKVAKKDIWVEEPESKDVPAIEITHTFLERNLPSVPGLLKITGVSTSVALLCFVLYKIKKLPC
Method: (§1) Hemmung der Monoaminoxidase
(§2) Die Bestimmung der Monoaminoxidase erfolgte in verdünntem Rattenhirnhomogenat dem 1. unterschiedliche Konzentrationen der zu prüfenden Testsubstanzen und 2. für die Bestimmung der Monoaminoxidase Typ A ¹⁴C-Tryptamin in einer Konzentration von 0,4 µmol, zur Bestimmung der Monoaminoxidase Typ B ¹⁴C-Phenylethylamin in einer Konzentration von 0,25 µmol zugesetzt wurde. Dieser Ansatz wurde 20 Minuten bei 37°C inkubiert. Die Reaktion wird durch 0,1 n HCl gestoppt und die Reaktionsprodukte nach Extraktion in Toluol-Szintillator (PPO + POPOP in Toluol) bestimmt. Der Blindwert wird in analogen Ansätzen mit einer Inkubationszeit von t = 0 Minuten bestimmt.
(§3) Aus den bei den verschiedenen Inhibitorkonzentrationen gegen die Kontrolle ermittelten Hemmwerten wurde durch lineare Regression nach logit-log-Transformation die mittlere Hemmkonzentration (IC₅₀) berechnet.

[1] = target: T2, Synaptosomen-Aufnahme von Noradrenalin (Rattus norvegicus, UniProt Q63380); test: Inhibition of noradrenaline uptake in rat brain synaptosomes (hippocampus, 3H-noradrenaline); settings: for Hemmung der Synaptosomen-Aufnahme von Noradrenalin r.W. (relative Wirksamkeit): Quotient IC50 Referenzverbindung / IC50 Beispielverbindung
T2 construct: Durch differentielle Zentrifugation wurden Synaptosomen erhalten; from tissue; host or cells: rat brain hippocampus synaptosomes
T2 sequence (Q63380 1-617): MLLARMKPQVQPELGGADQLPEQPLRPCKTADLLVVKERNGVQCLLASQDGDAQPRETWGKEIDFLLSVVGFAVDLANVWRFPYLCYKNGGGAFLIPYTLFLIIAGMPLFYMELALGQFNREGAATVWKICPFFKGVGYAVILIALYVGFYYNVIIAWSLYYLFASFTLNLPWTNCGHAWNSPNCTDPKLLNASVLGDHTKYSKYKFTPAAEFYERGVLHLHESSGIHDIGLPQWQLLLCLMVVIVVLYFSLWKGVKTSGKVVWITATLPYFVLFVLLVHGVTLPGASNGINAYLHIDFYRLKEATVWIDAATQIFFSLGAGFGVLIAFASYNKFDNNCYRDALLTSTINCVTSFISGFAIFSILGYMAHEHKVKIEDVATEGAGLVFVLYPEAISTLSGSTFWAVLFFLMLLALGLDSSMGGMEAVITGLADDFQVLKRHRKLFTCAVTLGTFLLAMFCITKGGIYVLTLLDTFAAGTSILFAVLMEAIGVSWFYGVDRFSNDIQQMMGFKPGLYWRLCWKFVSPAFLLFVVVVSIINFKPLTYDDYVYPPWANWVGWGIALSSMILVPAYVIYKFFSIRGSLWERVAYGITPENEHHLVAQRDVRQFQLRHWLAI
Source text: (§4) Hemmung der Neurotransmitter-Aufnahme in Rattenhirn-Synaptosomen
(§5) Hippocampus und Cortex aus Rattenhirn wurden präpariert und in 0,32 M Sucrose-Lösung homogenisiert. Durch differentielle Zentrifugation wurden Synaptosomen erhalten, die in Pufferlösung suspendiert wurden. Die Synaptosomen sind in der Lage, aus dem umgebenden Medium zugefügte Neurotransmittersubstanzen (z.B. Noradrenalin oder Serotonin) aktiv aufzunehmen. Dieser Vorgang ist durch uptake-Hemmer konzentrationsabhängig antagonisierbar. Die Synaptosomen wurden mit den Testsubstanzen in verschiedenen Konzentrationen versetzt und anschließend mit ³H-Noradrenalin (Hippocampus) bzw. ³H-Serotonin (Cortex) bei 37°C inkubiert. Die Substratkonzentration betrug ca. 10 nM. Nach Stoppen der Aufnahme durch Verdünnen mit eisgekühlter Pufferlösung wurden die Synaptosomen abzentrifugiert und die ³H-Aktivität im Sediment gemessen. Der Blindwert wird durch Inkubation bei 0°C ermittelt.
(§6) Aus den verschiedenen Inhibitor-Konzentrationen gegen Kontrolle ermittelten Hemmwerten wurde durch lineare Regression nach logit-log-Transformation die mittlere Hemmkonzentration IC₅₀ berechnet.

[2] = target: T3, Synaptosomen-Aufnahme von Serotonin (Rattus norvegicus, UniProt P31652); test: Inhibition of serotonin uptake in rat brain synaptosomes (cortex, 3H-serotonin); settings: for Hemmung der Synaptosomen-Aufnahme von Serotonin r.W. (relative Wirksamkeit): Quotient IC50 Referenzverbindung / IC50 Beispielverbindung
T3 construct: Durch differentielle Zentrifugation wurden Synaptosomen erhalten; from tissue; host or cells: rat brain cortex synaptosomes
T3 sequence (P31652 whole entry): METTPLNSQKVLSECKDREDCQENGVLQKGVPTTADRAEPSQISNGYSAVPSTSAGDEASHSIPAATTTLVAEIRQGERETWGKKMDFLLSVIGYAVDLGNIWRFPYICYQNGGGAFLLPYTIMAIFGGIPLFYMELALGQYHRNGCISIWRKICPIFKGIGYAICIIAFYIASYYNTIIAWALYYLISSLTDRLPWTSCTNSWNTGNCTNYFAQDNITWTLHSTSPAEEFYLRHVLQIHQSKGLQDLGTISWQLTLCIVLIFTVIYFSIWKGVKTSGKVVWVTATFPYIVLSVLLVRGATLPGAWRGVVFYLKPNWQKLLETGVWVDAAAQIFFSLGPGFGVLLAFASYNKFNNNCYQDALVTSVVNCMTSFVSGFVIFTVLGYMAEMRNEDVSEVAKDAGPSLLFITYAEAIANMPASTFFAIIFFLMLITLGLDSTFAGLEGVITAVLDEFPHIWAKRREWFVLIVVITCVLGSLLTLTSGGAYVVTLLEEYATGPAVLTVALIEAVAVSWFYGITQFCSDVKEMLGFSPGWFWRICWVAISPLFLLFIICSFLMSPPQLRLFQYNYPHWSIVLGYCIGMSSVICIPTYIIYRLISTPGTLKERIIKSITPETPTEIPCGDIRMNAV
Source text: as §4, §5, §6

Monoaminoxidase Typ B = target: T4, Monoaminoxidase Typ B (Rattus norvegicus, UniProt P19643); test: Inhibition of monoamine oxidase type B in rat brain homogenate (14C-phenylethylamine); settings: for Hemmung der Monoaminoxidase Typ B r.W. (relative Wirksamkeit): Quotient IC50 Referenzverbindung / IC50 Beispielverbindung
T4 construct: Die Bestimmung der Monoaminoxidase erfolgte in verdünntem Rattenhirnhomogenat; from tissue; host or cells: rat brain homogenate
T4 sequence (P19643 1-520): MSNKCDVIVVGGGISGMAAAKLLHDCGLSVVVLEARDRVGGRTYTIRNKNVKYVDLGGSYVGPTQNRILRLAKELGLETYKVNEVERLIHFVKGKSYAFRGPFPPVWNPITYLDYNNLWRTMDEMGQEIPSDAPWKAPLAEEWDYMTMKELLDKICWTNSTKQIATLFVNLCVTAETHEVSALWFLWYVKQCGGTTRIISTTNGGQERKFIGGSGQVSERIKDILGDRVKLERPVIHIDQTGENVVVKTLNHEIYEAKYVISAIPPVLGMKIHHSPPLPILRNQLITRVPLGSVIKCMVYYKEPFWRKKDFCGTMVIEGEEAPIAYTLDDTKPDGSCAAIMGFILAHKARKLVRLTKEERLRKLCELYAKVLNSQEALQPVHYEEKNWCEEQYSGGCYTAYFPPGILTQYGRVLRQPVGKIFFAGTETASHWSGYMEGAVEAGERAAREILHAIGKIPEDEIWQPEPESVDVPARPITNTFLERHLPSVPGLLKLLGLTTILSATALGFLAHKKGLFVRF
Method: as §1, §2, §3

[3] = rat brain homogenate, 14C-Tryptamin, 20 min 37°C, read-out: Hemmung der Monoaminoxidase Typ A IC50
[4] = rat hippocampus synaptosomes, 3H-Noradrenalin ca. 10 nM, 37°C, read-out: Hemmung der Synaptosomen-Aufnahme von Noradrenalin IC50
[5] = rat cortex synaptosomes, 3H-Serotonin ca. 10 nM, 37°C, read-out: Hemmung der Synaptosomen-Aufnahme von Serotonin IC50
[6] = rat brain homogenate, 14C-Phenylethylamin, 20 min 37°C, read-out: Hemmung der Monoaminoxidase Typ B IC50

| SMILES | Hemmung der Monoaminoxidase Typ A r.W. (relative Wirksamkeit) (Monoaminoxidase Typ A) | IC50 (Monoaminoxidase Typ A; [3]) [nM] | Hemmung der Synaptosomen-Aufnahme von Noradrenalin r.W. (relative Wirksamkeit) [1] | IC50 [1, 4] [nM] | Hemmung der Synaptosomen-Aufnahme von Serotonin r.W. (relative Wirksamkeit) [2] | IC50 [2, 5] [nM] | Hemmung der Monoaminoxidase Typ B r.W. (relative Wirksamkeit) (Monoaminoxidase Typ B) | IC50 (Monoaminoxidase Typ B; [6]) [nM] | IC50 (Monoaminoxidase Typ A) [nM] | IC50 [1] [nM] | IC50 [2] [nM] | IC50 (Monoaminoxidase Typ B) [nM] | Hemmung der Monoaminoxidase A, Wirksamkeit der Vergleichssubstanz übertroffen (fach) (Monoaminoxidase Typ A; fold versus comparison substance) |
| --- | --- | --- | --- | --- | --- | --- | --- | --- | --- | --- | --- | --- | --- |
| N=c1ccn(-c2ccc(Cl)c(Cl)c2)nc1 [Beispiel 1, 1-(3,4-Dichlorphenyl)-4-(1H)-pyridazinimin-hydrochlorid] | 2.2 | 1900 | 5.3 | 5.8 | 112 | 6.5 | 18.8 | 2600 |  |  |  |  |  |
| Br.Cc1ccc(-n2ccc(=N)cn2)cc1 [Beispiel 5, 1-(4-Methylphenyl)-4-(1H)-pyridazinimin-hydrobromid] | 2.8 |  | 0.7 |  | 1.4 |  | 4.9 |  | 1500 | 46 | 240 | 10000 |  |
| CCc1ccc(-n2ccc(=N)cn2)cc1.Cl [Beispiel 7, 1-(4-Ethylphenyl)-4-(1H)-pyridazinimin-hydrochlorid] | 6.6 |  | 0.1 |  | 12.6 |  | 32.7 |  | 640 | 500 | 58 | 1500 |  |
| N=c1ccn(-c2ccc(Br)cc2)nc1 [Beispiel 8, 1-(4-Bromphenyl)-4-(1H)-pyridazinimin-hydrochlorid] | 1.4 | 2900 | 0.9 | 34 | 56.2 | 13 | 4.9 | 10000 |  |  |  |  |  |
| COc1cc(-n2ccc(=N)cn2)ccc1C.Cl [Beispiel 10, 1-(3-Methoxy-4-methylphenyl)-4-(1H)-pyridazinimin-hydrochlorid] | 3.4 |  | 0.3 |  | 15.2 |  | 4.9 |  | 1200 | 110 | 48 | 10000 |  |
| Cc1ccc(-n2ccc(=N)cn2)cc1F [Beispiel 11, 1-(3-Fluor-4-methylphenyl)-4-(1H)-pyridazinimin-hydrochlorid] | 2.0 | 2100 | 1.2 | 26 | 7.3 | 100 | 9.6 | 5100 |  |  |  |  |  |
| N=c1ccn(-c2ccc(C(F)(F)F)c(Cl)c2)nc1 [Beispiel 12, 1-(3-Chlor-4-trifluormethylphenyl)-4-(1H)-pyridazinimin-hydrochlorid] | 2.3 | 1800 | 0.4 | 83 | 83.9 | 8.7 | 71 | 700 |  |  |  |  |  |
| Cc1ccc(-n2ccc(=N)cn2)cc1Br [Beispiel 13, 1-(3-Brom-4-methylphenyl)-4-(1H)-pyridazinimin-hydrochlorid] | 7.0 | 590 | 1.2 | 26 | 73.0 | 10 | 39.8 | 1200 |  |  |  |  | ≤ 7 |
| N=c1ccn(-c2ccc(Cl)c(Br)c2)nc1 [Beispiel 16, 1-(3-Brom-4-chlorphenyl)-4-(1H)-pyridazinimin-hydrochlorid] | 2.0 | 2140 | 2.5 | 13 | 109 | 6.7 | 18.1 | 2700 |  |  |  |  |  |
| N=c1ccn(-c2ccc(Br)c(Cl)c2)nc1 [Beispiel 17, 1-(3-Chlor-4-bromphenyl)-4-(1H)-pyridazinimin-hydrochlorid] | 2.7 | 1530 | 6.5 | 4.8 | 184 | 3.9 | 19.0 | 2600 |  |  |  |  |  |
| N=c1ccn(-c2ccc(Br)c(Br)c2)nc1 [Beispiel 18, 1-(3,4-Dibromphenyl)-4-(1H)-pyridazinimin-hydrochlorid] | 4.8 | 870 | 6.1 | 5.1 | 261 | 2.8 | 25.8 | 1900 |  |  |  |  |  |
| N=c1ccn(-c2ccc(C(F)(F)F)cc2)nc1 [Beispiel 32, 1-(4-Trifluormethylphenyl)-4-(1H)-pyridazinimin-hydrobromid] | 0.6 | 7000 | 0.1 | 700 | 16.6 | 44 | 12.2 | 4000 |  |  |  |  |  |
| Cc1ccc(-n2ccc(=N)cn2)cc1Cl [Beispiel 42, 1-(3-Chlor-4-methylphenyl)-4-(1H)-pyridazinimin-hydrochlorid] | 5.6 | 750 | 2.1 | 15 | 36.5 | 20 | 24.5 | 2000 |  |  |  |  |  |
| Cc1cc(-n2ccc(=N)cn2)ccc1Cl [Beispiel 45, 1-(3-Methyl-4-chlorphenyl)-4-(1H)-pyridazinimin-sulfat] | 4.2 | 1000 | 1.8 | 17 | 40.6 | 18 | 9.8 | 5000 |  |  |  |  |  |

From patent publication EP0227941A1, “1-Phenyl-4-(1H)-pyridazinimines, their preparation and use” (BASF Aktiengesellschaft, priority 1985, dated 1987)
